Assay results from US20090175842A1, “DIETARY ANTI-BACTERIAL COMPOSITIONS” (priority 2006, published 2009).

Test system: H. pylori clinical isolate 1735 (HP-1735)
Assay: Antibacterial sensitivity / zone of growth inhibition by well/disc diffusion method
Format: cell-based, Helicobacter pylori
Conditions: for zone of growth inhibition: clinical isolate 1735; for Antibiotic susceptibility (disc diffusion): strain HP-1735
[1] = antibiotic concentration 30 µg/disk

| Compound | zone of growth inhibition [1] | Antibiotic susceptibility (disc diffusion) (amoxicillin criterion) | zone of growth inhibition compared with dietary antibacterial composition (H. pylori clinical isolate 1735) | zone of growth inhibition (antibiotic concentration 15 µg/disk) | Antibiotic susceptibility (disc diffusion) (clarithromycin and tetracycline criterion) |
| --- | --- | --- | --- | --- | --- |
| CC1(C)S[C@@H]2[C@H](NC(=O)[C@H](N)c3ccc(O)cc3)C(=O)N2[C@H]1C(=O)O [AMO, Amoxicillin] | 50 mm | sensitive |  |  |  |
| CC[C@H]1OC(=O)[C@H](C)[C@@H](O[C@H]2C[C@@](C)(OC)[C@@H](O)[C@H](C)O2)[C@H](C)[C@@H](O[C@@H]2O[C@H](C)C[C@H](N(C)C)[C@H]2O)[C@](C)(OC)C[C@@H](C)C(=O)[C@H](C)[C@@H](O)[C@]1(C)O [CLA, Clarithromycin] |  |  | less zone of growth inhibition | 8 mm | resistant (≦30 mm for clarithromycin and tetracycline) |
| CN(C)[C@@H]1C(O)=C(C(N)=O)C(=O)[C@@]2(O)C(O)=C3C(=O)c4c(O)cccc4[C@@](C)(O)[C@H]3C[C@@H]12 [TET, Tetracycline] | 45 mm |  |  |  |  |
